Assay results: publication PMC3958483, “Fine Specificity and Molecular Competition in SLAM Family Receptor Signalling” (PLoS ONE, 2014)
Entries after “also recorded” stand apart in the source; their conditions may differ. Read-outs that look alike come from different tables or passages of the source. Non-standard residues stand in square brackets, D forms with d. Residues, ends and D or L forms follow the SMILES beside them. *: point of attachment. Biotin = O=C1N[C@H]2[C@H](CS[C@H]2CCCCC(=O)*)N1; pY = N[C@@H](Cc1ccc(OP(=O)(O)O)cc1)C(=O)O

Columns and labels:
[1] = target: T1, SAP (Homo sapiens, UniProt O60880); assay: SPR binding of SAP to immobilised phosphopeptides; details: 37°C
T1 construct: His-tag; made in house; host or cells: E. coli BL21(DE3)pLysS
T1 sequence (O60880 1-128): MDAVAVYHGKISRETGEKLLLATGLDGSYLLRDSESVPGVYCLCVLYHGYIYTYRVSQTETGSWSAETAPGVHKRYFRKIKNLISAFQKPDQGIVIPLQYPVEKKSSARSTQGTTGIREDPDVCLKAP

[2] = target: T2, EAT-2 (Homo sapiens, UniProt O14796); assay: SPR binding of EAT-2 to immobilised phosphopeptides; details: 37°C
T2 construct: His-tag; made in house; host or cells: E. coli BL21(DE3)pLysS
T2 sequence (O14796 1-132): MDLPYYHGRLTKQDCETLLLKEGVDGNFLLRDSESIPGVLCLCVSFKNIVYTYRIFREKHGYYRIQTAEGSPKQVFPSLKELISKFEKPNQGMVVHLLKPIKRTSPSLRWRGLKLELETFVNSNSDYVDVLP
Description: (§1) Biotinylated EAT-2 was produced by expression of full length human EAT-2 with a C-terminal BirA tag ([…]) in the E coli expression vector pTrcHisA. Constructs encoding the 6xHis-tagged tandem SH2 domains plus the SH3 domains of PLCγ1 (Swiss-Prot: P19174, aa 536–863) and PLCγ2 (Swiss-Prot: P16885, aa 519–838) were generated in pTrcHisA (5′ joining sequence with BglII site underlined: gag atc tcc translates as EIS). The molecular weight (MW) and theoretical extinction coefficients (EC) of recombinant PLCγ1 and PLCγ2 SH2-SH2-SH3 domains were PLCγ1; MW = 42531, EC = 63,830 M^−1 cm^−1 and PLCγ2; MW = 42415, EC = 67,270 M^−1 cm^−1.
Soluble recombinant proteins were produced in BL21(DE3)pLysS E. coli (Calbiochem) at 37°C in 2TY medium and induced at OD 600 = 0.6 with 0.1 mM IPTG for 4 h or in 2XYT auto-induction (Formedium) medium overnight. Bacterial pellets were resuspended in ∼0.1 volume 10 mM HEPES pH7.4, 150 mM NaCl and used immediately or stored at −20°C in 10 ml aliquots. His-tag mediated protein purification was performed on a Co^2+ or Ni^2+ column by standard protocols. […] Where applicable, proteins were stored frozen in 10–25 mM HEPES pH 7.4, 200–300 mM NaCl (pH 7.4).All proteins were purified by size exclusion chromatography immediately prior to SPR analysis.
Measurements of protein-protein affinity were performed on BIAcore 3000 and T200 systems using CM5 or biotin capture chips (GE Healthcare Ltd, UK). Streptavidin was coupled to CM5 sensor chips using standard NHS/EDC chemical linkage, followed by immobilization of biotinylated peptides. The levels of peptide immobilized were approximately 25 and 50 response units respectively of single and tandem tyrosine motifs to facilitate saturating binding and limitation of “bridging” [22], [45]. Purified recombinant proteins were passed over the immobilized peptides at a range of concentrations in HBS-EP buffer, 10 mM HEPES pH 7.4, 150 mM NaCl, 3.4 mM EDTA, 0.005% surfactant, P20. Equilibrium binding coefficients and dissociation and association rates were calculated using BIAevaluation and/or GraphPad Prism 5.4 software.
(§2) The specificities of their SH2 domains overlap, introducing the concept of competition between them for ITSMs in cells where they are co-expressed, including NK cells.

[3] = target: T3, SHIP SH2 from SHIP-1 (Homo sapiens, UniProt Q92835); assay: SPR binding of SHIP SH2 domain to immobilised phosphopeptides; details: 37°C, equilibrium binding analysis
T3 construct: the single SH2 domain from SHIP-1; His-tag; made in house; host or cells: E. coli BL21(DE3)pLysS
T3 sequence (Q92835 5-101 limits assumed): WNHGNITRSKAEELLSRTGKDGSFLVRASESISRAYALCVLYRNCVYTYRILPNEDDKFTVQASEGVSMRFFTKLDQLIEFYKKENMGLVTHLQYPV
Description: as §1
Measurements of protein-protein affinity were performed on BIAcore 3000 and T200 systems using CM5 or biotin capture chips (GE Healthcare Ltd, UK). Streptavidin was coupled to CM5 sensor chips using standard NHS/EDC chemical linkage, followed by immobilization of biotinylated peptides. The levels of peptide immobilized were approximately 25 and 50 response units respectively of single and tandem tyrosine motifs to facilitate saturating binding and limitation of “bridging” [22], [45]. […] Equilibrium binding coefficients and dissociation and association rates were calculated using BIAevaluation and/or GraphPad Prism 5.4 software. […]

[4] = test system: EAT-2; details: ref [30]; cited from earlier work
Description: as §2

[5] = Pull-down with phosphorylated CD244 ITSM1 from NK cell lysates, LC-MS/MS; format: binding; details: human NK cell lysates; compared with control phosphopeptide SHIP-1 Y865
Experimental: For pull-down of associated proteins, streptavidin Sepharose (GE Healthcare) was pre-coated with saturating amounts of peptide or EAT-2. NK92 cells (4×10^8) were treated with 500 μM pervanadate for 15 minutes, then lysed in PBS, 1% Triton X-100, 1 mM sodium orthovanadate in the presence of mammalian protease inhibitor solution (Sigma). Lysates were pre-cleared by centrifugation, followed by incubation with streptavidin Sepharose. Peptide or EAT-2-coated streptavidin beads were incubated with NK92 lysates for 2 hours at 4°C with rotation. Beads were washed once with 15 ml ice cold PBS/1% (v/v) Triton X-100. Bound protein was eluted using 100 mM glycine-HCl pH 2.5.
Protein samples were prepared for mass spectrometry as described previously. Briefly, eluted proteins were spun onto the membranes of Vivacon 500 filters (10,000 MWCO – Sartorius). Membranes were washed once with PBS then proteins were denatured with 8 M urea, reduced with 10 mM DTT in 25 mM ammonium bicarbonate buffer, followed by alkylation with 50 mM iodoacetamide. Proteins were then digested overnight with trypsin. Tryptic peptides were then eluted from the membrane and analyzed on an Ultimate 3000 HPLC-coupled Orbitrap XL mass spectrometer. Proteins were identified by liquid chromatography-coupled tandem mass-spectrometry (LC-MS/MS). Raw data files were converted to mzXML format using ReADW (v. 4.2.1) and submitted to the Central Proteomics Facilities Pipeline for database comparison and peptide identification. Searching against the International Protein Index (IPI) human protein sequence database for protein identification, protein and peptide hits were statistically validated by applying a 1% false discovery rate (FDR) by searching against a concatenated target/decoy database. Datasets were searched with variable peptide modifications for phosphotyrosine, phosphoserine, phosphothreonine, oxidation of methionine and deamination.
Protein identification data were exported into ProteinCenter (v3.8.3013 – Thermo Fisher) for filtering and annotation. Results were filtered to remove any proteins with less than 3 unique peptides, less than 10 percent sequence coverage, or median protein probability scores less than 0.5. To establish sample specificity, any protein with at least 10-fold greater sequence coverage in one sample compared with the other was considered to be specific for that sample.
Similarly, differences in specificity of inhibitory SH2 domain containing proteins for ITSMs are relevant to understanding mechanisms of inhibition by ITSMs. We focused on CD244 ITSMs to establish general paradigms.

[6] = target: T4, PLCγ1 (SH2-SH2-SH3) (Homo sapiens, UniProt P19174); assay: SPR binding of PLCγ1 SH2-SH2-SH3 to immobilised phosphopeptides; details: 37°C, ten two-fold dilutions, top concentration 1 μM, one-site specific binding model, curve shown in Figure 7B
T4 construct: PLCγ1 (Swiss-Prot: P19174, aa 536–863); 6xHis (N); made in house; host or cells: E. coli BL21(DE3)pLysS
T4 sequence (P19174 536-863): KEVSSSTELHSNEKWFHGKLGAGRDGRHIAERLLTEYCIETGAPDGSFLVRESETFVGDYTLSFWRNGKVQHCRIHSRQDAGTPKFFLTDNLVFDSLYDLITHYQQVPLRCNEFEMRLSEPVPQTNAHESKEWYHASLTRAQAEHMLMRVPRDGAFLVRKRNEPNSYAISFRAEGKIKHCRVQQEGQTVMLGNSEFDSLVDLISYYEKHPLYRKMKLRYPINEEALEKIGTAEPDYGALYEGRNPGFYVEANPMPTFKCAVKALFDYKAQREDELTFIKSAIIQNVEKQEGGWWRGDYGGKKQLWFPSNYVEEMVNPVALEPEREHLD
Description: as §1
(§3) Soluble recombinant proteins were produced in BL21(DE3)pLysS E. coli (Calbiochem) at 37°C in 2TY medium and induced at OD 600 = 0.6 with 0.1 mM IPTG for 4 h or in 2XYT auto-induction (Formedium) medium overnight. Bacterial pellets were resuspended in ∼0.1 volume 10 mM HEPES pH7.4, 150 mM NaCl and used immediately or stored at −20°C in 10 ml aliquots. His-tag mediated protein purification was performed on a Co^2+ or Ni^2+ column by standard protocols. […]
(§4) Measurements of protein-protein affinity were performed on BIAcore 3000 and T200 systems using CM5 or biotin capture chips (GE Healthcare Ltd, UK). […] Equilibrium binding coefficients and dissociation and association rates were calculated using BIAevaluation and/or GraphPad Prism 5.4 software. […]

[7] = target: T5, PLCγ2 (SH2-SH2-SH3) (Homo sapiens, UniProt P16885); assay: SPR binding of PLCγ2 SH2-SH2-SH3 to immobilised phosphopeptides; details: KD (Figure 7B), 37°C, ten two-fold dilutions, top concentration 1 μM, one-site specific binding model, curve shown in Figure 7B
T5 construct: PLCγ2 (Swiss-Prot: P16885, aa 519–838); 6xHis (N); made in house; host or cells: E. coli BL21(DE3)pLysS
T5 sequence (P16885 519-838): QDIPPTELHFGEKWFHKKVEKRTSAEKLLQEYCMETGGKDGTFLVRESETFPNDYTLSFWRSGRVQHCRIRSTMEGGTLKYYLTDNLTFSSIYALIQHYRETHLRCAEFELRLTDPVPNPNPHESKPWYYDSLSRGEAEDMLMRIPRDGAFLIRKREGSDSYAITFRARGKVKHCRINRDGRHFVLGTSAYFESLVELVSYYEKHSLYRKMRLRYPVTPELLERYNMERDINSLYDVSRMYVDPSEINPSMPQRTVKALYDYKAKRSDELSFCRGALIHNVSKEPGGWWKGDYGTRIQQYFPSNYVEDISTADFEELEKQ
Description: as §1, §3, §4

For “Biotin-GENTEpYDTIPH [CRACC ITSM1, synthetic biotinylated phosphopeptide from human CRACC ITSM1]”, the “binding of SAP” value [1] was “Neither SAP nor EAT-2 bound; also recorded: No specific association” and the “binding of EAT-2” value [2] was “Neither SAP nor EAT-2 bound; also recorded: No specific association”.

With `CC[C@H](C)[C@H](NC(=O)[C@H](CC(C)C)NC(=O)[C@H](CO)NC(=O)[C@H](Cc1ccc(OP(=O)(O)O)cc1)NC(=O)[C@H](CC(C)C)NC(=O)[C@@H](NC(=O)[C@H](Cc1ccc(O)cc1)NC(=O)[C@H](C)NC(=O)[C@@H]1CCCN1C(=O)CCCC[C@@H]1SC[C@@H]2NC(=O)N[C@@H]21)[C@@H](C)O)C(=O)N[C@@H](CCC(N)=O)C(=O)N1CCC[C@H]1C(=O)O` [CD244 ITSM3] (Biotin-PAYTL[pY]SLIQP-OH; C-terminus assumed) the “binding of SHIP SH2 domain” value [3] was “preference of SHIP SH2 domain”.

In the case of “ADYDTI [mouse CRACC tyrosine motif in the equivalent position to human CRACC ITSM1]”, the “binding of EAT-2 to mouse CRACC motif” value [4] is listed as “did not bind EAT-2”.

In the case of “Growth factor receptor-bound protein 2 (GRB2): SH2 domain containing protein pulled down by CD244 ITSM1”, the “pull-down by CD244 ITSM1” value [5] is reported as “pulled down by the ITSM peptide”.

In the case of `CC[C@H](C)[C@H](NC(=O)[C@@H](NC(=O)[C@H](CC(C)C)NC(=O)[C@H](Cc1ccccc1)NC(=O)[C@H](CCC(=O)O)NC(=O)CCCC[C@@H]1SC[C@@H]2NC(=O)N[C@@H]21)[C@@H](C)O)C(=O)N[C@@H](Cc1ccc(OP(=O)(O)O)cc1)C(=O)N[C@@H](CCC(=O)O)C(=O)N[C@@H](CC(=O)O)C(=O)N[C@H](C(=O)N[C@@H](CCCCN)C(=O)N[C@@H](CC(=O)O)C(=O)O)C(C)C` [CD244 ITSM1], the Kd [6] is reported as 130 nM, the Kd [7] is reported as 360 nM and the Kd ([2]; HBS-EP pH 7.4, soluble EAT-2, immobilised phosphopeptide, mean, n and range in own columns of Table 4, read-out: KD) is reported as 60 nM. It also gave a Kd ([2]; ten two-fold dilutions, top concentration 0.3 μM, one-site specific binding model, curve shown in Figure 2B, read-out: KD (Figure 2B)) of 12 nM.
